# According to patent publication US7605163B2, “Benzoyl-piperazine derivatives” (Hoffmann-La Roche Inc., priority 2003, dated 2009):
# Molecular target: T1, mGlyT-1b (Mus musculus, UniProt P28571)
# T1 construct: host or cells: Flp-in-CHO cells
# T1 sequence (P28571 1-651 isoform P28571-2): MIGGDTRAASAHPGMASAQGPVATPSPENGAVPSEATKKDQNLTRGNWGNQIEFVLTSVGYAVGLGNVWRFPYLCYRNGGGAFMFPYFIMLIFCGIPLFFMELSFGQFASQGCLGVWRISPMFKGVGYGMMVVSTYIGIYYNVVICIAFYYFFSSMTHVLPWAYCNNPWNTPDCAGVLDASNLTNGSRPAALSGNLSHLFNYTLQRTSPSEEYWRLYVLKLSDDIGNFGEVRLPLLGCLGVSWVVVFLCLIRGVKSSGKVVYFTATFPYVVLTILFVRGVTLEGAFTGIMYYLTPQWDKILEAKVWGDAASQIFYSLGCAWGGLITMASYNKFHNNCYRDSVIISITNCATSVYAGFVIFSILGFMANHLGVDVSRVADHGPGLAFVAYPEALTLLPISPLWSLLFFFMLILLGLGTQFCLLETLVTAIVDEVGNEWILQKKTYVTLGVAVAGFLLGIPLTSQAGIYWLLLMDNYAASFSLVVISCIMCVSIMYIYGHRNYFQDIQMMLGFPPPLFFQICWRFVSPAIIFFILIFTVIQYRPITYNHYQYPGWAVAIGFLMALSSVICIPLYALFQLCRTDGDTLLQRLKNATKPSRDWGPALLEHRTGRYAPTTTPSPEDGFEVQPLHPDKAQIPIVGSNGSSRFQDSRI
# Test: Glycine Uptake Inhibition Assay (mGlyT-1b)
# Type: cell-based
# Conditions: [3H]-glycine uptake inhibition at GlyT-1, Flp-in-CHO cells transfected with mGlyT-1b cDNA
# Description: DMEM complete medium: Nutrient mixture F-12 (Gibco Life-technologies), fetal bovine serum (FBS) 5%, (Gibco life technologies), Penicillin/Streptomycin 1% (Gibco life technologies), Hygromycin 0.6 mg/ml (Gibco life technologies), Glutamine 1 mM Gibco life technologies)
# Uptake buffer (UB): 150 mM NaCl, 10 mM Hepes-Tris, pH 7.4, 1 mM CaCl2, 2.5 mM KCl, 2.5 mM MgSO4, 10 mM (+) D-glucose. Flp-in™-CHO (Invitrogen Cat n^o R758-07) cells stably transfected with mGlyT1b cDNA.
# Glycine Uptake Inhibition Assay (mGlyT-1b)
# On day 1 mammalian cells, (Flp-in™-CHO), transfected with mGlyT-1b cDNA, were plated at the density of 40,000 cells/well in complete F-12 medium, without hygromycin in 96-well culture plates. On day 2, the medium was aspirated, and the cells were washed twice with uptake buffer (UB). The cells were then incubated for 20 min at 22° C. with either (i) no potential competitor, (ii) 10 mM non-radioactive glycine, (iii) a concentration of a potential inhibitor. A range of concentrations of the potential inhibitor was used to generate data for calculating the concentration of inhibitor resulting in 50% of the effect (e.g. IC50, the concentration of the competitor inhibiting glycine uptake of 50%).
# A solution was then immediately added containing [^3H]-glycine 60 nM (11-16 Ci/mmol) and 25 μM non-radioactive glycine. The plates were incubated with gentle shaking, and the reaction was stopped by aspiration of the mixture and washing (three times) with ice-cold UB. The cells were lysed with scintillation liquid, shaken 3 hours and the radioactivity in the cells counted using a scintillation counter.
row,IC50 [nM],SMILES
1,46,"CC(Oc1ccc(S(C)(=O)=O)cc1C(=O)N1CCN(c2ccc(C(F)(F)F)cc2)CC1)C1CC1 (racemic) [Example 104, Rac-[2-(1-Cyclopropyl-ethoxy)-5-methanesulfonyl-phenyl]-[4-(4-trifluoromethyl-phenyl)-piperazin-1-yl]-methanone]"
2,23,CC(Oc1ccc(S(C)(=O)=O)cc1C(=O)N1CCN(c2ccc(C#N)c(F)c2F)CC1)C(F)(F)F (racemic) [compound 207]
3,32,CC(Oc1ccc(S(C)(=O)=O)cc1C(=O)N1CCN(c2ccc(Cl)cc2C#N)CC1)C(F)(F)F (racemic) [compound 256]
4,86,CC(Oc1ccc(S(C)(=O)=O)cc1C(=O)N1CCN(c2ccc(Cl)c(Cl)c2)CC1)C(F)(F)F (racemic) [compound 258]
5,43,CC(Oc1ccc(S(C)(=O)=O)cc1C(=O)N1CCN(c2c(F)cc(C#N)cc2F)CC1)C(F)(F)F (racemic) [compound 260]
6,43,CC(Oc1ccc(S(C)(=O)=O)cc1C(=O)N1CCN(c2cc(F)c(C#N)cc2F)CC1)C(F)(F)F (racemic) [compound 261]
7,42,CC(Oc1ccc(S(C)(=O)=O)cc1C(=O)N1CCN(c2cc(F)c(C#N)c(F)c2)CC1)C(F)(F)F (racemic) [compound 262]
8,21,CC(Oc1ccc(S(C)(=O)=O)cc1C(=O)N1CCN(c2ccc(C#N)cc2)CC1)C(F)(F)F (racemic) [compound 298]
9,44,CC(Oc1ccc(S(C)(=O)=O)cc1C(=O)N1CCN(c2ccc(C#N)cc2F)CC1)C(F)(F)F (racemic) [compound 299]
10,16,CC(Oc1ccc(S(C)(=O)=O)cc1C(=O)N1CCN(c2ccc(C#N)c(F)c2)CC1)C(F)(F)F (racemic) [compound 300]
11,13,CC(Oc1ccc(S(C)(=O)=O)cc1C(=O)N1CCN(c2ccc(C(F)(F)F)cc2F)CC1)C(F)(F)F (racemic) [compound 302]
12,6,CC(Oc1ccc(S(C)(=O)=O)cc1C(=O)N1CCN(c2ccc(C(F)(F)F)c(F)c2)CC1)C(F)(F)F (racemic) [compound 303]
13,31,CCC(C)Oc1ccc(S(C)(=O)=O)cc1C(=O)N1CCN(c2ccc(C(C)=O)cc2F)CC1 (racemic) [compound 319]
14,18,CCC(C)Oc1ccc(S(C)(=O)=O)cc1C(=O)N1CCN(c2ccc(C#N)cc2F)CC1 (racemic) [compound 321]
15,28,CCC(C)Oc1ccc(S(C)(=O)=O)cc1C(=O)N1CCN(c2ccc(C#N)c(F)c2)CC1 (racemic) [compound 322]
16,39,CCC(C)Oc1ccc(S(C)(=O)=O)cc1C(=O)N1CCN(c2ccc(C(F)(F)F)cc2F)CC1 (racemic) [compound 324]
17,33,CCC(C)Oc1ccc(S(C)(=O)=O)cc1C(=O)N1CCN(c2ccc(C(F)(F)F)c(F)c2)CC1 (racemic) [compound 325]
18,27,CC(Oc1ccc(S(C)(=O)=O)cc1C(=O)N1CCN(c2ncc(C(F)(F)F)cc2Cl)CC1)C(F)(F)F (racemic) [compound 407]
19,37,CC(Oc1ccc(S(C)(=O)=O)cc1C(=O)N1CCN(c2ccc(C(F)(F)F)cn2)CC1)C(F)(F)F (racemic) [compound 408]
20,29,CC(Oc1ccc(S(C)(=O)=O)cc1C(=O)N1CCN(c2ccc(Br)cn2)CC1)C(F)(F)F (racemic) [compound 435]

row,IC50 [nM],SMILES
1,47,CC(Oc1ccc(S(C)(=O)=O)cc1C(=O)N1CCN(c2ncc(C(F)(F)F)cc2F)CC1)C(F)(F)F (racemic) [compound 438]
2,40,CC(Oc1ccc(S(C)(=O)=O)cc1C(=O)N1CCN(c2cccc(C(F)(F)F)n2)CC1)C(F)(F)F (racemic) [compound 459]
3,30,C[C@H](Oc1ccc(S(C)(=O)=O)cc1C(=O)N1CCN(c2ncc(C(F)(F)F)cc2F)CC1)C(F)(F)F (racemic) [compound 470]
4,19,CNS(=O)(=O)c1ccc(OC(C)C(F)(F)F)c(C(=O)N2CCN(c3ccc(C(F)(F)F)cc3)CC2)c1 (racemic) [compound 554]
5,42,CNS(=O)(=O)c1ccc(OC(C)C(F)(F)F)c(C(=O)N2CCN(c3cc(F)c(C#N)cc3F)CC2)c1 (racemic) [compound 557]
6,29,CNS(=O)(=O)c1ccc(OC(C)C(F)(F)F)c(C(=O)N2CCN(c3ccc(C#N)c(F)c3F)CC2)c1 (racemic) [compound 558]
7,44,CCC(C)Oc1ccc(S(C)(=O)=O)cc1C(=O)N1CCN(c2ccc(S(=O)(=O)CC)cc2F)CC1 (racemic) [compound 568]
8,20,"CC(Oc1ccc(S(C)(=O)=O)cc1C(=O)N1CCN(c2ccc(C(F)(F)F)cn2)CC1)C(F)(F)F (single isomer, unassigned) [compound 464]"
9,40,"CC(Oc1ccc(S(C)(=O)=O)cc1C(=O)N1CCN(c2ccc(C(F)(F)F)cn2)CC1)C(F)(F)F (single isomer, unassigned) [compound 465]"
10,26,"CC(Oc1ccc(S(C)(=O)=O)cc1C(=O)N1CCN(c2ccc(C(F)(F)F)cc2F)CC1)C(F)(F)F (single isomer, unassigned) [compound 466]"
11,20,"CC(Oc1ccc(S(C)(=O)=O)cc1C(=O)N1CCN(c2ccc(C(F)(F)F)cc2)CC1)C(F)(F)F (single isomer, unassigned) [compound 468]"
12,20,"CC(Oc1ccc(S(C)(=O)=O)cc1C(=O)N1CCN(c2ccc(C(F)(F)F)cc2)CC1)C(F)(F)F (single isomer, unassigned) [compound 469]"
13,39,"CC(=O)c1ccc(N2CCN(C(=O)c3cc(S(C)(=O)=O)ccc3OC(C)C)CC2)c(F)c1 [Example 1, 1-{3-fluoro-4-[4-(2-isopropoxy-5-methanesulfonyl-benzoyl)-piperazin-1-yl]-phenyl}-ethanone]"
14,12,"CC(C)Oc1ccc(S(C)(=O)=O)cc1C(=O)N1CCN(c2ccc(C(F)(F)F)cc2F)CC1 [Example 5, [4-(2-fluoro-4-trifluoromethyl-phenyl)-piperazin-1-yl]-(2-isopropoxy-5-methanesulfonyl-phenyl)-methanone]"
15,15,"CC(=O)c1ccc(N2CCN(C(=O)c3cc(S(C)(=O)=O)ccc3OCC3CC3)CC2)c(F)c1 [Example 15, 1-{4-[4-(2-cyclopropylmethoxy-5-methanesulfonyl-benzoyl)-piperazin-1-yl]-3-fluoro-phenyl}-ethanone]"
16,12,"CS(=O)(=O)c1ccc(OCC(F)(F)F)c(C(=O)N2CCN(c3ccc(C(F)(F)F)cc3F)CC2)c1 [Example 28, [4-(2-fluoro-4-trifluoromethyl-phenyl)-piperazin-1-yl]-[5-methanesulfonyl-2-(2,2,2-trifluoro-ethoxy)-phenyl]-methanone]"
17,50,"COCCOc1ccc([N+](=O)[O-])cc1C(=O)N1CCN(c2ccc(C(C)=O)cc2F)CC1 [Example 54, 1-(3-Fluoro-4-{4-[2-(2-methoxy-ethoxy)-5-nitro-benzoyl]-piperazin-1-yl}-phenyl)-ethanone]"
18,17,"CC(C)Oc1ccc([N+](=O)[O-])cc1C(=O)N1CCN(c2ccc(C(F)(F)F)cc2)CC1 [Example 62, (2-Isopropoxy-5-nitro-phenyl)-[4-(4-trifluoromethyl-phenyl)-piperazin-1-yl]-methanone]"
19,28,"O=C(c1cc([N+](=O)[O-])ccc1OCC1CC1)N1CCN(c2ccc(C(F)(F)F)cc2)CC1 [Example 63, (2-Cyclopropylmethoxy-5-nitro-phenyl)-[4-(4-trifluoromethyl-phenyl)-piperazin-1-yl]-methanone]"
20,25,"O=C(c1cc([N+](=O)[O-])ccc1OCC1CCC1)N1CCN(c2ccc(C(F)(F)F)cc2)CC1 [Example 64, (2-Cyclobutylmethoxy-5-nitro-phenyl)-[4-(4-trifluoromethyl-phenyl)-piperazin-1-yl]-methanone]"

row,SMILES,IC50 [nM]
1,"CCC(C)Oc1ccc([N+](=O)[O-])cc1C(=O)N1CCN(c2ccc(C(F)(F)F)cc2)CC1 (racemic) [Example 78, Rac-(2-sec-Butoxy-5-nitro-phenyl)-[4-(4-trifluoromethyl-phenyl)-piperazin-1-yl]-methanone]",12
